In publication PMC5218480 (PLoS ONE, 2017):

System: MV-4-11 cells
Test: Gene expression microarray analysis (Affymetrix PrimeView) and GSEA
Format: cell-based, human
Set-up: RFU PODN (11730768_x_at) / Fold change /veh PODN (11730768_x_at) / RFU LINC00158 (11744669_a_at) / Fold change /veh LINC00158 (11744669_a_at) / RFU DUSP10 (11751237_a_at) / Fold change /veh DUSP10 (11751237_a_at) / RFU ID3 (11757404_x_at) / Fold change /veh ID3 (11757404_x_at) / RFU PLEKHG5 (11737974_s_at) / Fold change /veh PLEKHG5 (11737974_s_at) / RFU LRRC4B (11730491_at) / Fold change /veh LRRC4B (11730491_at) / RFU GIMAP4 (11747438_a_at) / Fold change /veh GIMAP4 (11747438_a_at) / RFU KRT8 (11758183_x_at) / Fold change /veh KRT8 (11758183_x_at) / RFU CNN1 (11734310_a_at) / Fold change /veh CNN1 (11734310_a_at) / RFU VPS37D (11726825_at) / Fold change /veh VPS37D (11726825_at) / RFU C10orf10 (11716522_x_at) / Fold change /veh C10orf10 (11716522_x_at) / RFU KIR2DL2 /// KIR2DL4 /// KIR2DL5A /// KIR2DL5B /// KIR2DS1 /// KIR2DS2 /// KIR2DS3 /// KIR2DS4 /// KIR3DL3 /// KIR3DL3 /// KIR3DS1 (11738374_at) / Fold change /veh KIR2DL2 /// KIR2DL4 /// KIR2DL5A /// KIR2DL5B /// KIR2DS1 /// KIR2DS2 /// KIR2DS3 /// KIR2DS4 /// KIR3DL3 /// KIR3DL3 /// KIR3DS1 (11738374_at) / RFU C1QL1 (11718748_at) / Fold change /veh C1QL1 (11718748_at) / RFU TMPRSS4 (11747572_a_at) / Fold change /veh TMPRSS4 (11747572_a_at) / RFU HAMP (11756126_x_at) / Fold change /veh HAMP (11756126_x_at) / RFU RNFT2 (11725882_a_at) / Fold change /veh RNFT2 (11725882_a_at) / RFU NR4A2 (11747474_a_at) / Fold change /veh NR4A2 (11747474_a_at) / RFU ABCC12 (11746883_a_at) / Fold change /veh ABCC12 (11746883_a_at) / RFU TMEM136 (11760407_x_at) / Fold change /veh TMEM136 (11760407_x_at) / RFU CLDN22 /// WWC2 (11732394_at) / Fold change /veh CLDN22 /// WWC2 (11732394_at) / RFU HLA-DPB1 (11760878_x_at) / Fold change /veh HLA-DPB1 (11760878_x_at) / RFU SPINT1 (11716480_a_at) / Fold change /veh SPINT1 (11716480_a_at) / RFU GAP43 (11754022_s_at) / Fold change /veh GAP43 (11754022_s_at) / RFU A4GNT (11735810_at) / Fold change /veh A4GNT (11735810_at) / RFU PRB3 (11715151_x_at) / Fold change /veh PRB3 (11715151_x_at) / RFU TUBB4B (11761932_at) / Fold change /veh TUBB4B (11761932_at) / RFU CAPN14 (11732068_a_at) / Fold change /veh CAPN14 (11732068_a_at) / RFU TMCC2 (11721928_a_at) / Fold change /veh TMCC2 (11721928_a_at) / RFU IRGQ (11745062_a_at) / Fold change /veh IRGQ (11745062_a_at) / RFU FAM174B (11720279_a_at) / Fold change /veh FAM174B (11720279_a_at) / RFU TMPRSS4 (11748680_a_at) / Fold change /veh TMPRSS4 (11748680_a_at) / RFU FAM212B (11763350_a_at) / Fold change /veh FAM212B (11763350_a_at) / RFU PLEKHG5 (11743358_a_at) / Fold change /veh PLEKHG5 (11743358_a_at) / RFU ZSCAN30 (11745921_a_at) / Fold change /veh ZSCAN30 (11745921_a_at) / RFU CMKLR1 (11741424_a_at) / Fold change /veh CMKLR1 (11741424_a_at) / RFU LOC101060620 /// MAPK8IP1 (11723275_at) / Fold change /veh LOC101060620 /// MAPK8IP1 (11723275_at) / RFU SPTSSB (11747773_x_at) / Fold change /veh SPTSSB (11747773_x_at) / RFU PRSS12 (11739890_at) / Fold change /veh PRSS12 (11739890_at) / RFU BIN1 (11741810_x_at) / Fold change /veh BIN1 (11741810_x_at) / RFU WNT11 (11732464_a_at) / Fold change /veh WNT11 (11732464_a_at) / RFU C10orf10 (11716521_a_at) / Fold change /veh C10orf10 (11716521_a_at) / RFU C5orf56 (11738089_at) / Fold change /veh C5orf56 (11738089_at) / RFU CYB561 (11721691_x_at) / Fold change /veh CYB561 (11721691_x_at) / RFU ANKRD19P (11752326_a_at) / Fold change /veh ANKRD19P (11752326_a_at) / RFU OR2T12 /// OR2T33 /// OR2T8 (11738714_s_at) / Fold change /veh OR2T12 /// OR2T33 /// OR2T8 (11738714_s_at) / RFU VCAN (11748164_a_at) / Fold change /veh VCAN (11748164_a_at) / RFU JSRP1 (11732532_at) / Fold change /veh JSRP1 (11732532_at) / RFU KRTAP10-11 (11738290_x_at) / Fold change /veh KRTAP10-11 (11738290_x_at) / RFU MYO3A (11730013_a_at) / Fold change /veh MYO3A (11730013_a_at) / RFU EBF3 (11725865_a_at) / Fold change /veh EBF3 (11725865_a_at) / RFU CAMK2N1 (11719241_x_at) / Fold change /veh CAMK2N1 (11719241_x_at) / RFU C5orf56 (11738088_a_at) / Fold change /veh C5orf56 (11738088_a_at) / RFU OLFML3 (11715873_a_at) / Fold change /veh OLFML3 (11715873_a_at) / RFU LOC100653217 /// NTM (11731650_a_at) / Fold change /veh LOC100653217 /// NTM (11731650_a_at) / RFU MAPK11 (11762145_a_at) / Fold change /veh MAPK11 (11762145_a_at) / RFU FIZ1 (11724087_x_at) / Fold change /veh FIZ1 (11724087_x_at) / RFU OASL (11726364_x_at) / Fold change /veh OASL (11726364_x_at) / RFU SOX15 (11748057_x_at) / Fold change /veh SOX15 (11748057_x_at) / RFU CD79A (11719716_a_at) / Fold change /veh CD79A (11719716_a_at) / RFU HIST1H1D (11736915_at) / Fold change /veh HIST1H1D (11736915_at) / RFU CASKIN2 (11723855_a_at) / Fold change /veh CASKIN2 (11723855_a_at) / RFU LOC730098 (11760151_x_at) / Fold change /veh LOC730098 (11760151_x_at) / RFU OR4N2 (11742367_at) / Fold change /veh OR4N2 (11742367_at) / RFU PRRT2 (11749266_a_at) / Fold change /veh PRRT2 (11749266_a_at) / RFU SNX32 (11753110_a_at) / Fold change /veh SNX32 (11753110_a_at) / RFU CDHR5 (11726645_a_at) / Fold change /veh CDHR5 (11726645_a_at) / RFU RCAN1 (11760418_a_at) / Fold change /veh RCAN1 (11760418_a_at) / RFU FAM167A (11723789_a_at) / Fold change /veh FAM167A (11723789_a_at) / RFU FAM26E (11764081_at) / Fold change /veh FAM26E (11764081_at) / RFU ISYNA1 (11749810_s_at) / Fold change /veh ISYNA1 (11749810_s_at) / RFU ACY1 (11761880_at) / Fold change /veh ACY1 (11761880_at) / RFU 11764098_at / Fold change /veh 11764098_at / RFU SAMD14 (11745864_x_at) / Fold change /veh SAMD14 (11745864_x_at) / RFU NPB (11741838_a_at) / Fold change /veh NPB (11741838_a_at) / RFU TMPRSS6 (11731388_a_at) / Fold change /veh TMPRSS6 (11731388_a_at) / RFU KRTAP10-2 (11738614_at) / Fold change /veh KRTAP10-2 (11738614_at) / RFU ARHGAP8 /// PRR5-ARHGAP8 (11727945_x_at) / Fold change /veh ARHGAP8 /// PRR5-ARHGAP8 (11727945_x_at) / RFU KRTAP5-7 /// NADSYN1 (11734609_at) / Fold change /veh KRTAP5-7 /// NADSYN1 (11734609_at) / RFU RASL12 (11751679_a_at) / Fold change /veh RASL12 (11751679_a_at) / RFU CDKN2B (11736163_a_at) / Fold change /veh CDKN2B (11736163_a_at) / RFU PRF1 (11729649_at) / Fold change /veh PRF1 (11729649_at) / RFU, ZNF638 /// ZNF638-IT1 / Fold change vs veh, ZNF638 /// ZNF638-IT1 / RFU, PANK3 / Fold change vs veh, PANK3 / RFU, SH3YL1 / Fold change vs veh, SH3YL1 / RFU, ZEB2 / Fold change vs veh, ZEB2 / RFU, NRIP1 / Fold change vs veh, NRIP1 / RFU, PTTG1IP / Fold change vs veh, PTTG1IP / RFU, CAPN2 / Fold change vs veh, CAPN2 / RFU, MED14 / Fold change vs veh, MED14 / RFU, SNORA58 / Fold change vs veh, SNORA58 / RFU, C1orf63 / Fold change vs veh, C1orf63 / RFU, LRRFIP1 / Fold change vs veh, LRRFIP1 / RFU, NDUFAF7 / Fold change vs veh, NDUFAF7 / RFU, SLC12A2 / Fold change vs veh, SLC12A2 / RFU, IBTK / Fold change vs veh, IBTK / RFU, ESF1 / Fold change vs veh, ESF1 / Fold change vs veh, TMEM50B / RFU, TAOK1 / Fold change vs veh, TAOK1 / RFU, ACBD3 / Fold change vs veh, ACBD3 / RFU, TMA16 / Fold change vs veh, TMA16 / RFU, RWDD3 / Fold change vs veh, RWDD3 / RFU, BCAT1 / Fold change vs veh, BCAT1 / RFU, EDEM3 / Fold change vs veh, EDEM3 / RFU, TMEM33 / Fold change vs veh, TMEM33 / RFU, WDR75 / Fold change vs veh, WDR75 / RFU, AHCTF1 / Fold change vs veh, AHCTF1 / RFU, TFRC / Fold change vs veh, TFRC / RFU, ZDHHC17 / Fold change vs veh, ZDHHC17 / RFU, NOM1 / Fold change vs veh, NOM1 / RFU, ARL8B / Fold change vs veh, ARL8B / RFU, ZBTB11 / Fold change vs veh, ZBTB11 / RFU, TAMM41 / Fold change vs veh, TAMM41 / RFU, KIAA1704 /// LOC100996395 / Fold change vs veh, KIAA1704 /// LOC100996395 / RFU, ING1 / Fold change vs veh, ING1 / RFU, TRMT61B / Fold change vs veh, TRMT61B / RFU, FUBP3 / Fold change vs veh, FUBP3 / RFU, TP53 / Fold change vs veh, TP53 / RFU, TNKS2 / Fold change vs veh, TNKS2 / RFU, ZFP14 / Fold change vs veh, ZFP14 / RFU, ACTR2 / Fold change vs veh, ACTR2 / RFU, PPP3R1 / Fold change vs veh, PPP3R1 / RFU, PIK3R1 / Fold change vs veh, PIK3R1 / RFU, HNRNPA1 / Fold change vs veh, HNRNPA1 / RFU, RNF170 / Fold change vs veh, RNF170 / RFU, ZNF28 / Fold change vs veh, ZNF28 / RFU, RNGTT / Fold change vs veh, RNGTT / RFU, OGT / Fold change vs veh, OGT / RFU, BRD1 / Fold change vs veh, BRD1 / RFU, MARS / Fold change vs veh, MARS / RFU, ZNF655 / Fold change vs veh, ZNF655 / RFU, FAHD1 / Fold change vs veh, FAHD1 / RFU, BDP1 / Fold change vs veh, BDP1 / RFU, LRRCC1 / Fold change vs veh, LRRCC1 / RFU, ARID1A / Fold change vs veh, ARID1A / RFU, ZNF146 / Fold change vs veh, ZNF146 / RFU, ZNF330 / Fold change vs veh, ZNF330 / RFU, GPN3 / Fold change vs veh, GPN3 / RFU, C9orf123 / Fold change vs veh, C9orf123 / RFU, N4BP2L2 / Fold change vs veh, N4BP2L2 / RFU, ARFIP1 / Fold change vs veh, ARFIP1 / RFU, FAM179B / Fold change vs veh, FAM179B / RFU, BCL10 / Fold change vs veh, BCL10 / RFU, UHRF1BP1L / Fold change vs veh, UHRF1BP1L / RFU, BET1 / Fold change vs veh, BET1 / RFU, CNOT2 / Fold change vs veh, CNOT2 / RFU, ZNF268 / Fold change vs veh, ZNF268 / Fold change vs veh, ZNF507 / RFU, DGCR2 / Fold change vs veh, DGCR2 / RFU, WDSUB1 / Fold change vs veh, WDSUB1 / Fold change vs veh, HSP90B1 /// MIR3652 / RFU, ADSS / Fold change vs veh, ADSS / RFU, GK / Fold change vs veh, GK / RFU, ZNF148 / Fold change vs veh, ZNF148 / RFU, TAF9 / Fold change vs veh, TAF9 / RFU, SLC1A5 / Fold change vs veh, SLC1A5 / RFU, SLMO2 / Fold change vs veh, SLMO2 / RFU, ABCC4 / Fold change vs veh, ABCC4 / RFU, LOC101060439 /// RAP1B / Fold change vs veh, LOC101060439 /// RAP1B / RFU, RFX7 / Fold change vs veh, RFX7 / RFU, GTPBP10 / Fold change vs veh, GTPBP10 / RFU, CNEP1R1 / Fold change vs veh, CNEP1R1 / RFU, BIVM-ERCC5 /// ERCC5 / Fold change vs veh, BIVM-ERCC5 /// ERCC5 / RFU, ILF3 / Fold change vs veh, ILF3 / RFU 11762660_at / Fold change /veh 11762660_at / RFU VCAN (11757783_s_at) / Fold change /veh VCAN (11757783_s_at) / RFU DDX43 (11728927_at) / Fold change /veh DDX43 (11728927_at) / RFU KRT8 (11758188_x_at) / Fold change /veh KRT8 (11758188_x_at) / RFU NKD1 (11759106_at) / Fold change /veh NKD1 (11759106_at) / RFU SRD5A1 (11742802_a_at) / Fold change /veh SRD5A1 (11742802_a_at) / RFU TPSAB1 /// TPSB2 (11721975_s_at) / Fold change /veh TPSAB1 /// TPSB2 (11721975_s_at) / RFU GSTM3 (11746129_a_at) / Fold change /veh GSTM3 (11746129_a_at) / RFU IL23R (11737362_x_at) / Fold change /veh IL23R (11737362_x_at) / RFU TMEM51 (11727254_a_at) / Fold change /veh TMEM51 (11727254_a_at) / RFU PIWIL2 (11732686_x_at) / Fold change /veh PIWIL2 (11732686_x_at) / RFU ORM1 (11744905_x_at) / Fold change /veh ORM1 (11744905_x_at) / RFU CCDC152 (11743942_at) / Fold change /veh CCDC152 (11743942_at) / RFU ECM1 (11717891_a_at) / Fold change /veh ECM1 (11717891_a_at) / RFU IL23R (11748794_a_at) / Fold change /veh IL23R (11748794_a_at) / RFU TNFAIP8L3 (11732012_x_at) / Fold change /veh TNFAIP8L3 (11732012_x_at) / RFU MBOAT4 (11741988_at) / Fold change /veh MBOAT4 (11741988_at) / RFU 11764193_at / Fold change /veh 11764193_at / RFU TMEM53 (11763286_at) / Fold change /veh TMEM53 (11763286_at) / RFU MAGEB2 (11727129_at) / Fold change /veh MAGEB2 (11727129_at) / RFU TMEM200A (11744735_a_at) / Fold change /veh TMEM200A (11744735_a_at) / RFU CCDC152 (11751479_a_at) / Fold change /veh CCDC152 (11751479_a_at) / RFU FAM211A (11726209_a_at) / Fold change /veh FAM211A (11726209_a_at) / RFU RGS16 (11746705_a_at) / Fold change /veh RGS16 (11746705_a_at) / RFU VCAN (11755009_s_at) / Fold change /veh VCAN (11755009_s_at) / RFU RHOB (11743442_s_at) / Fold change /veh RHOB (11743442_s_at) / RFU RGS16 (11720943_a_at) / Fold change /veh RGS16 (11720943_a_at) / RFU RGS16 (11720944_at) / Fold change /veh RGS16 (11720944_at) / RFU, VPS4B / Fold change vs veh, VPS4B / RFU, CREB1 / Fold change vs veh, CREB1 / RFU, DNAJC13 / Fold change vs veh, DNAJC13 / RFU, GNAQ / Fold change vs veh, GNAQ / RFU, CDK5R1 / Fold change vs veh, CDK5R1 / RFU, ZRANB3 / Fold change vs veh, ZRANB3 / RFU, CUL4A / Fold change vs veh, CUL4A / RFU, CCNY / Fold change vs veh, CCNY / RFU, UFL1 / Fold change vs veh, UFL1 / RFU, COG3 / Fold change vs veh, COG3 / RFU, DIAPH2 / Fold change vs veh, DIAPH2 / RFU, SKA2 / Fold change vs veh, SKA2 / RFU, AFF3 / Fold change vs veh, AFF3 / RFU, LMF1 / Fold change vs veh, LMF1 / RFU, IPO11 / Fold change vs veh, IPO11 / RFU, DFFB / Fold change vs veh, DFFB / RFU, FOXP1 / Fold change vs veh, FOXP1 / RFU, CARD8 / Fold change vs veh, CARD8 / RFU, STRN3 / Fold change vs veh, STRN3 / RFU, ADK / Fold change vs veh, ADK / RFU, RASSF2 / Fold change vs veh, RASSF2 / RFU, WIPF1 / Fold change vs veh, WIPF1 / RFU, LARP1B / Fold change vs veh, LARP1B / RFU, RASA1 / Fold change vs veh, RASA1 / RFU, RB1 / Fold change vs veh, RB1 / RFU, PPFIA1 / Fold change vs veh, PPFIA1 / RFU, MAT2A / Fold change vs veh, MAT2A / RFU, CCT5 / Fold change vs veh, CCT5 / RFU, WDR92 / Fold change vs veh, WDR92 / RFU, CUX1 / Fold change vs veh, CUX1 / RFU, TTC7A / Fold change vs veh, TTC7A / RFU, TMEM135 / Fold change vs veh, TMEM135 / RFU, DEPTOR / Fold change vs veh, DEPTOR / RFU, CPM / Fold change vs veh, CPM / RFU, DNAJB6 / Fold change vs veh, DNAJB6 / RFU, CACNA2D3 / Fold change vs veh, CACNA2D3 / RFU, DTX4 / Fold change vs veh, DTX4 / RFU, TFCP2 / Fold change vs veh, TFCP2 / RFU, GMCL1 /// GMCL1P1 / Fold change vs veh, GMCL1 /// GMCL1P1 / RFU, AEBP2 / Fold change vs veh, AEBP2 / RFU, SNHG1 /// SNORD22 /// SNORD25 /// SNORD26 /// SNORD27 /// SNORD28 /// SNORD29 /// SNORD31 / Fold change vs veh, SNHG1 /// SNORD22 /// SNORD25 /// SNORD26 /// SNORD27 /// SNORD28 /// SNORD29 /// SNORD31 / Fold change (Aza/veh), C12orf56 (ProbeSet 11735607_a_at) / Fold change (ACY-1035/veh), C12orf56 (ProbeSet 11735607_a_at) / Fold change (Aza/veh), FGFR1OP (ProbeSet 11751329_s_at) / Fold change (ACY-1035/veh), FGFR1OP (ProbeSet 11751329_s_at) / Fold change (Aza/veh), VPS36 (ProbeSet 11739960_a_at) / Fold change (ACY-1035/veh), VPS36 (ProbeSet 11739960_a_at) / RFU SYPL1 (11715823_x_at) / Fold change /veh SYPL1 (11715823_x_at) / RFU IGFBP7 (11715501_s_at) / Fold change /veh IGFBP7 (11715501_s_at) / RFU REEP3 (11722064_at) / Fold change /veh REEP3 (11722064_at) / RFU IGLL1 (11728026_x_at) / Fold change /veh IGLL1 (11728026_x_at): dose or concentration left out as unconfirmed
Details: MV-4-11 cells, 48 hours

With `Nc1ncn([C@@H]2O[C@H](CO)[C@@H](O)[C@H]2O)c(=O)n1` [azacitidine] the “RFU CCDC152 (11743942_at)” value was 8.41 RFU.
